Measured values published in paper PMC3259201 (European Journal of Medicinal Chemistry, 2011).
Entries after “also recorded” stand apart in the source; their conditions may differ.

Test system: HIV-1 NL4-3 strain
Assay: HIV-1 infectivity assay, single cycle infection of TZM-bl cells
Format: cell-based
Details: wild-type HIV-1 NL4-3 strain

SMILES	anti-HIV activity (in words)
CC1(C)Oc2cc(O)c3c(=O)c4ccccc4oc3c2[C@@H](OC(=O)[C@@]23CCC(C)(C(=O)O2)C3(C)C)[C@H]1OC(=O)[C@@]12CCC(C)(C(=O)O1)C2(C)C [Compound 9, 1R,2R-(-)-Dicamphanoyl-3,3-dimethyl-6-hydroxy-1,2-dihydropyrano[2,3-c]xanthen-7(1H)-one]	did not show notable activity or selectivity; also recorded: did not exhibit anti-HIV activity
COc1cc2c(c3oc4c(C)cccc4c(=O)c13)[C@@H](OC(=O)C13CCC(C)(C(=O)O1)C3(C)C)[C@@H](OC(=O)C13CCC(C)(C(=O)O1)C3(C)C)C(C)(C)O2 (stereo partly drawn) [Compound 10, 1R,2R-(-)-Dicamphanoyl-3,3,11-trimethyl-6-methoxy-1,2-dihydropyrano[2,3-c]xanthen-7(1H)-one]	almost inactive
COc1cccc2c(=O)c3c(OC)cc4c(c3oc12)[C@@H](OC(=O)[C@@]12CCC(C)(C(=O)O1)C2(C)C)[C@@H](OC(=O)[C@@]12CCC(C)(C(=O)O1)C2(C)C)C(C)(C)O4 [Compound 14, 1R,2R-(-)-Dicamphanoyl-3,3-dimethyl-6,11-dimethoxy-1,2-dihydropyrano[2,3-c]xanthen-7(1H)-one]	no detectable anti-HIV activity or selectivity
